Patent US20030004123A1, “Targeted gene transfer using G protein coupled receptors” (priority 1997, published 2003)

Key:
[1] = tested on: WD human airway epithelial cells; experiment: Cl- secretory response of WD human airway epithelial cultures to lumenal agonists; assay type: cell-based; details: agonist at 10^−4M, FIG. 3
Excerpt: Epithelial cells are derived from CF and non-CF nasal and bronchial airway epithelia using procedures similar to those described by Gray et al. 1996. Am. J Respir. Cell Mol. Biol. 14, 104-112. Resected nasal turbinates or portions of mainstem/lobar bronchi representing excess donor tissue are obtained at the time of lung transplantation under the auspices of the University of North Carolina at Chapel Hill Institutional Committee on the Protection of the Rights of Human Subjects. Epithelial cells are removed from the specimens by protease XIV digestion as described (Wu, R., et al., 1985. Am. Rev. Respir. Dis. 132, 311-320), but omitting the filtration step. 1-2×10^6 cells are plated per 100 mm tissue culture dish in modified LHC9 medium. Lechner, J. F. and Laveck, M. A. 1985. J. Tiss. Cult. Meth. 9, 43-48. The modifications include increasing the EGF concentration to 25 ng/ml, adjusting the retinoic acid concentration to 5×10^−8 M, and supplementation with 0.5 mg/ml bovine serum albumin and 0.8% bovine pituitary extract. At approximately 75% confluence, the cells are harvested by trypsinization and passage 1 cells are plated at a density of 2.5×10^5 cells on Transwell-Col inserts (Coming-Costar, 24 mm diameter, 0.4 μm pore size), in modified medium. The medium is similar to the supplemented LHC9 except that a 50:50 mixture of LHC Basal (Biofluids) and DMEM-H is used as the base, amphotericin and gentamycin are omitted and the EGF concentration is reduced to 0.5 ng/ml. After the cells grow to confluence (4-6 days) the apical surface of the cultures are given an air-liquid interface for another 25-30 days until use.
Investigations were carried out to identify which 7-TM receptors, if any, are localized in the apical membrane of WD human airway epithelial cells. Cultures of WD cells were exposed to NECA (an A2b receptor agonist), isoproterenol, bradykinin, or ATP (all at 10^−4M), and Cl-secretory responsiveness was determined.

[2] = target: T1, HA-tagged human P2Y2 receptor (Homo sapiens, UniProt P41231); experiment: Agonist-induced internalization of HA-P2Y2 receptor in A9 cells; assay type: cell-based; details: ATPγS 10^−4 M, within 45 minutes
T1 construct: expressed in transfected cells; host or cells: A9 cells (retroviral gene transfer)
T1 sequence (P41231 whole entry): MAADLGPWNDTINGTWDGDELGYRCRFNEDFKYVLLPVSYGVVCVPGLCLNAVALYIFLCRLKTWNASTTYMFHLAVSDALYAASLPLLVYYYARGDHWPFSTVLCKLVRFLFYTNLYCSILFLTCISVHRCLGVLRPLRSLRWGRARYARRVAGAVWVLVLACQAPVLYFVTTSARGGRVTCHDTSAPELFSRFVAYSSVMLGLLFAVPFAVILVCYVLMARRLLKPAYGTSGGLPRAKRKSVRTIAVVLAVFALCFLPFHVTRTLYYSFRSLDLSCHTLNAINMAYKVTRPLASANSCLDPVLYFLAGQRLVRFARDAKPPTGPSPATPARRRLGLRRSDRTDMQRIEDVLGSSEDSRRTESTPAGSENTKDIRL
Excerpt: To test the concept that the P2Y2 receptor is a candidate receptor for targeting based on the ability to bind and internalize an exogenous ligand, we have obtained CHO and A9 cells (both of which are not transducible by AdV) that express the HA-tagged human P2Y2 receptor (HA tag on the extracellular N-terminus) by retroviral gene transfer. HA-P2Y2 receptor expressing A9 cells, but not control cells, stain with fluorescently labeled anti-HA Abs under resting conditions. With agonist [ATPγS (10^−4 M)] exposure, approximately 80% of the receptors are internalized within 45 minutes. The internalization of P2Y2 receptor is mediated via coated pits.

[3] = target: T2, human P2Y2-receptor (HA epitope-tag) in 1321N1 human astrocytoma cells (Homo sapiens, UniProt P41231); details: ELISA, ATPγS exposures of 1 hr; cited from earlier work
T2 construct: expressed in transfected cells; host or cells: 1321N1 human astrocytoma cells
T2 sequence (P41231 whole entry): as above

[4] = target: T2, human P2Y2-receptor (HA epitope-tag) in 1321N1 human astrocytoma cells; experiment: Internalization of P2Y2-HA receptor in astrocytoma cells (immunofluorescence, ELISA); assay type: cell-based; details: 30 min ATPγS exposure
[5] = Metabolic stability in cystic fibrosis sputum; assay type: in vitro ADME; details: compared with UTP, FIG. 9B
Excerpt: FIG. 9B is a graphical representation of the metabolic stability of U2P4 compared with UTP in cystic fibrosis sputum.
Biologically active analogs of UTP that are more resistant to biological hydrolysis than UTP have been developed for linkage to vectors. The dinucleotide U2P4 has useful properties.

[6] = target: T3, P2Y2 receptors (Homo sapiens, UniProt P41231); experiment: Inositol phosphate formation in astrocytoma cells expressing P2Y2 receptors; assay type: cell-based; details: FIG. 9A
T3 construct: expressed in transfected cells; host or cells: astrocytoma cells
T3 sequence (P41231 whole entry): as above
Excerpt: FIG. 9A is a graphical representation of a comparison of agonist potency of U2P4 and UTP in astrocytoma cells expressing P2Y2 receptors.

## Nc1ncnc2c1ncn2[C@@H]1O[C@H](COP(=O)(O)OP(=O)(O)OP(=O)(O)O)[C@@H](O)[C@H]1O [ATP]
[1]
  Cl-secretory responsiveness: the greatest response

## Nc1ncnc2c1ncn2[C@@H]1O[C@H](COP(=O)(O)OP(=O)(O)OP(O)(O)=S)[C@@H](O)[C@H]1O [ATPγS]
[2]
  receptors internalized: approximately 80%
[3]
  internalization efficiency (loss of receptor sites): 80%
[4]
  plasma membrane immunoreactivity of P2Y2-HA receptor: clear loss of immunoreactivity from the plasma membrane

## O=c1ccn([C@@H]2O[C@H](COP(=O)([O-])OP(=O)([O-])OP(=O)([O-])OP(=O)([O-])OC[C@H]3O[C@@H](n4ccc(=O)[nH]c4=O)[C@H](O)[C@@H]3O)[C@@H](O)[C@H]2O)c(=O)[nH]1.[Na+].[Na+].[Na+].[Na+] [Example U2P4]
[5]
  hydrolysis in cystic fibrosis (CF) sputum: resistant to hydrolysis
[6]
  agonist potency relative to UTP (inositol phosphate release): equipotent with UTP

## CCNC(=O)[C@H]1O[C@@H](n2cnc3c(N)ncnc32)[C@H](O)[C@@H]1O [NECA]
[1]
  Cl-secretory responsiveness: a Cl-secretory response was detected

## CC(C)NCC(O)c1ccc(O)c(O)c1 (centres unmarked) [isoproterenol]
[1]
  Cl-secretory responsiveness: a Cl-secretory response was detected
